In patent US10722514B2 (FLX Bio, Inc., priority 2017, dated 2020):
Counter-ions that a name gives are not always drawn. Like-named read-outs stand apart in the source and are kept apart here.

Target: T1, recombinant full-length USP7 (Homo sapiens, UniProt Q93009)
T1 construct: A 25 μl reaction volume containing recombinant full-length USP7 (62 pM)
Test: USP7-mediated ubiquitin-rhodamine cleavage assay
Assay type: biochemical
Details: recombinant full-length USP7 62 pM, ubiquitin-rhodamine 100 nM, 1 hour reaction at room temperature
Summary of the method: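 USP7 (62 pM) in 20 mM HEPES pH 7.3, 150 mM NaCl, 1 mM TCEP, 125 μg/ml BSA was preincubated with compound (1% DMSO) for 30 min at room temperature. Ubiquitin-rhodamine (100 nM final) was then added for 1 hour, the reaction stopped with acetic acid, and fluorescence read; IC50 from 4-parameter fit.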

[1] = 30-minute incubation with compound, read-out: Potency: USP7 IC50
[2] = 30-minute pre-incubation, read-out: Potency (USP7 IC50)

T1 sequence (Q93009 whole entry): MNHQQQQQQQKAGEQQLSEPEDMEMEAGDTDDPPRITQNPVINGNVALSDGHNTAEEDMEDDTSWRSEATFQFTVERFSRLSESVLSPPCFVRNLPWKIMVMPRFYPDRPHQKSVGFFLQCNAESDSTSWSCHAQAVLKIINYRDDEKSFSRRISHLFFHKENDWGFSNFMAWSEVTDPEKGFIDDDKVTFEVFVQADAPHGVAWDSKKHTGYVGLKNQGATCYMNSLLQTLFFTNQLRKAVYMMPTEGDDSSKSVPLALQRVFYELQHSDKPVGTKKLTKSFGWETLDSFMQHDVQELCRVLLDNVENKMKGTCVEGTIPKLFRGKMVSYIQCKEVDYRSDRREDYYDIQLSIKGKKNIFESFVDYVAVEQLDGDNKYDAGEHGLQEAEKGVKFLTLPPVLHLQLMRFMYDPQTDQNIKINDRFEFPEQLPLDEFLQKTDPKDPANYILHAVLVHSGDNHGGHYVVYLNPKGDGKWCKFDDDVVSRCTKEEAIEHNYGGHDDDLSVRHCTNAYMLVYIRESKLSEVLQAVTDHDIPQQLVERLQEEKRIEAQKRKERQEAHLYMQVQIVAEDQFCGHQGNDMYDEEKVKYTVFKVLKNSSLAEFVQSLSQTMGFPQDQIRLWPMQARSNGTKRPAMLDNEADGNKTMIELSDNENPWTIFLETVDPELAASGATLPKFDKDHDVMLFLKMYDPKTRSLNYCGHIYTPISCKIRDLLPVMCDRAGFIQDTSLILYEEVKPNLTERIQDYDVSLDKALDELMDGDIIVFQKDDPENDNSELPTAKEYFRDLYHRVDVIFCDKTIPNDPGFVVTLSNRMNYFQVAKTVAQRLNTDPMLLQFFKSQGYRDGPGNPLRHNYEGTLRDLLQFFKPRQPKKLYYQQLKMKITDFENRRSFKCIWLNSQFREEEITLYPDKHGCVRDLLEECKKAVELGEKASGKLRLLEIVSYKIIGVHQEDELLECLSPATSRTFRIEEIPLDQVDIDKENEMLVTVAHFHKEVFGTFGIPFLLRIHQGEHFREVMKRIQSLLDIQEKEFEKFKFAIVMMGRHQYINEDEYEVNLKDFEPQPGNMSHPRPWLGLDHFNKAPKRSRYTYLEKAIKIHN

Compound	IC50 [1] [nM]	IC50 [2] [nM]
N#Cc1cc(-c2ccnc3cc(CN4C(=O)CCC4=O)sc23)c(O[C@@H]2CNC[C@@H]2F)cc1F [Example 135, 5-(2-((2,5-Dioxopyrrolidin-1-yl)methyl)thieno[3,2-b]pyridin-7-yl)-2-fluoro-4-(((3R,4S)-4-fluoropyrrolidin-3-yl)oxy)benzonitrile]	1000 to 10000	
Cc1cc(Cl)cc(-c2ccnc3cc(Cn4c(=O)ccn(C)c4=O)sc23)c1O[C@H]1CC[C@H](N)C1 [Example 522, 3-[[7-[2-[(1S,3S)-3-aminocylcopentoxy]-5-chloro-3-methyl-phenyl]thieno[3,2-b]pyridin-2-yl]methyl]-1-methyl-pyrimidine-2,4-dione; 2,2,2-trifluoroacetic acid]		< 1000
Cc1cc(Cl)cc(-c2ncnc3cc(Cn4c(=O)ccn(CC(F)(F)F)c4=O)sc23)c1OC1CC(N)C1 (stereo not shown) [Example 534, 3-[[4-[2-(3-aminocyclobutoxy)-5-chloro-3-methyl-phenyl]thieno[3,2-d]pyrimidin-6-yl]methyl]-1-(2,2,2-trifluoroethyl)pyrimidine-2,4-dione; 2,2,2-trifluoroacetic acid]		< 1000
Cc1cc(Cl)cc(-c2ccnc3cc(Cn4c(=O)ccn(CC(F)(F)F)c4=O)sc23)c1OCCN [Example 576, 3-[[7-[2-(2-aminoethoxy)-5-chloro-3-methyl-phenyl]thhieno[3,2-b]pyridin-2-yl]methyl]-1-(2,2,2-trifluoroethyl)pyrimidine-2,4-dione; 2,2,2-trifluoroacetic acid]		< 1000
3-((7-(5-Chloro-3-methyl-2-(((1R,3R)-3-morpholinocyclopentyl)oxy)phenyl)thieno[3,2-b]pyridin-2-yl)methyl)-1-(2,2,2-trifluoroethyl)pyrimidine-2,4(1H,3H)-dione [Example 246]	< 1000	
Cc1cc(Cl)cc(-c2ccnc3cc(CO)sc23)c1OC[C@@H]1CCN1 [Example 18, (S)-(7-(2-(Azetidin-2-ylmethoxy)-5-chloro-3-methylphenyl)thieno[3,2-b]pyridin-2-yl)methanol]	10000 to 30000	
Cc1cc(C#N)cc(-c2ccnc3cc(CN4C(=O)CCC4=O)sc23)c1OCC1(C#N)CNC1 [Example 27, 3-((4-Cyano-2-(2-((2,5-dioxopyrrolidin-1-yl)methyl)thieno[3,2-b]pyridin-7-yl)-6-methylphenoxy)methyl)azetidine-3-carbonitrile]	< 1000	
Cc1cc(Cl)cc(-c2ccnc3cc(CN4C(=O)CCC4=O)sc23)c1OC1CC(C)(N)C1 (stereo not shown) [Example 444, 1-[[7-[2-(3-amino-3-methyl-cyclobutoxy)-5-chloro-3-methyl-phenyl]thieno[3,2-b]pyridin-2-yl]methyl]pyrrolidine-2,5-dione dihydrochloride]		< 1000
Cc1cc(Cl)cc(-c2ccnc3cc(Cn4c(=O)ccn(C)c4=O)sc23)c1O[C@@H]1CNCC(C)(C)C1 [Example 536, 3-[[7-[5-chloro-2-[[(3S)-5-dimethyl-3-piperidyl]oxy]-3-methyl-phenyl]thieno[3,2-b]pyridin-2-yl]methyl]-1-methyl-pyrimidine-2,4-dione; 2,2,2-trifluoroacetic acid]		< 1000
Cc1cc(C#N)cc(-c2ccnc3cc(CO)sc23)c1OCC1(C#N)CNC1 [Example 11, 3-((4-Cyano-2-(2-(hydroxymethyl)thieno[3,2-b]pyridin-7-yl)-6-methylphenoxy)methyl)azetidine-3-carbonitrile]	1000 to 10000	
OCc1cc2nccc(-c3cc(Cl)ccc3OCC3CNC3)c2s1 [Example 29, (7-(2-(Azetidin-3-ylmethoxy)-5-chlorophenyl)thieno[3,2-b]pyridin-2-yl)methanol]	1000 to 10000	
CCC(O)c1cc2ncnc(-c3cc(Cl)cc(C)c3OCC3CNC3)c2s1 (stereo not shown) [Example 13, 1-(4-(2-(Azetidin-3-ylmethoxy)-5-chloro-3-methylphenyl)thieno[3,2-d]pyrimidin-6-yl)propan-1-ol]	1000 to 10000	
Cc1cc(Cl)cc(-c2ncnc3cc(Cn4c(=O)ccn(CC(F)(F)F)c4=O)sc23)c1O[C@H]1CC[C@H](N)C1 [Example 543, 3-[[4-[2-[(1S,3S)-3-aminocyclopentoxy]-5-chloro-3-methyl-phenyl]thieno[3,2-d]pyrimidin-6-yl]methyl]-1-(2,2,2-trifluoroethyl)pyrimidine-2,4-dione; 2,2,2-trifluoroacetic acid]		< 1000

Continued, values first:

IC50 [1] [nM]	IC50 [2] [nM]	Compound
	< 1000	COCCN1CC[C@@H](Oc2c(C)cc(Cl)cc2-c2ccnc3cc(Cn4c(=O)ccn(CC(F)(F)F)c4=O)sc23)[C@H](C)C1 [Example 654, 3-[[7-[5-chloro-2-[[(3R,4R)-1-(2-methoxyethyl)-3-methyl-4-piperidyl]oxy]-3-methyl-phenyl]thieno[3,2-b]pyridin-2-yl]methyl]-1-(2,2,2-trifluoroethyl)pyrimidine-2,4-dione]
	< 1000	Cc1cc(Cl)cc(-c2ncnc3cc(Cn4c(=O)ccn(C(C)C)c4=O)sc23)c1O[C@@H]1CCN(C)C[C@@H]1C [Example 510, 3-[[4-[5-chloro-2-[[(3S,4R)-1,3-dimethyl-4-piperidyl]oxy]-3-methyl-phenyl]thieno[3,2-d]pyrimidin-6-yl]methyl]-1-isopropyl-pyrimidine-2,4-dione]
	< 1000	Cc1cc(Cl)cc(-c2ncnc3cc(Cn4c(=O)ccn(CC(F)(F)F)c4=O)sc23)c1OC1CC2CNC1C2 (stereo not shown) [Example 539, 3-[[4-[2-(3-azabicyclo[2.2.1]heptan-5-yloxy)-5-chloro-3-methyl-phenyl]thieno[3,2-d]pyrimidin-6-yl]methyl]-1-(2,2,2-trifluoroethyl)pyrimidine-2,4-dione]
< 1000		Cc1cc(Cl)cc(-c2ccnc3cc(CN4C(=O)C5CC5C4=O)sc23)c1O[C@@H]1CNC[C@@H]1C (stereo partly drawn) [Example 327, 3-[[7-[5-chloro-3-methyl-2-[(3S,4S)-4-methylpyrrolidin-3-yl]oxy-phenyl]thieno[3,2-b]pyridin-2-yl]methyl]-3-azabicyclo[3.1.0]hexane-2,4-dione]
< 1000		Cc1cc(Cl)cc(-c2ncnc3cc(CN4C(=O)C5C(C4=O)C5(C)C)sc23)c1OCC1(C)CNC1 (stereo not shown) [Example 395, 3-[[4-[5-chloro-3-methyl-2-[(3-methylazetidin-3-yl)methoxy]phenyl]thieno[3,2-d]pyrimidin-6-yl]methyl]-6,6-dimethyl-3-azabicyclo[3.1.0]hexane-2,4-dione]
	< 1000	Cc1cc(Cl)cc(-c2ccnc3cc(Cn4c(=O)ccn(C)c4=O)sc23)c1OC1CNCCC1(C)C (stereo not shown) [Example 592, 3-[[7-[5-chloro-2-[(4,4-dimethyl-3-piperidyl)oxy]-3-methyl-phenyl]thieno[3,2-b]pyridin-2-yl]methyl]-1-methyl-pyrimidine-2,4-dione]
	< 1000	Cc1cc(Cl)cc(-c2ccnc3cc(Cn4c(=O)ccn(CC(F)(F)F)c4=O)sc23)c1OCC1CNCCO1 (stereo not shown) [Example 651, 3-[[7-[5-chloro-3-methyl-2-(morpholin-2-ylmethoxy)phenyl]thieno[3,2-b]pyridin-2-yl]methyl]-1-(2,2,2-trifluoroethyl)pyrimidine-2,4-dione; 2,2,2-trifluoroacetic acid]
	< 1000	Cc1cc(Cl)cc(-c2ccnc3cc(Cn4c(=O)ccn(CC(F)(F)F)c4=O)sc23)c1OC1CNCC[C@@]1(C)F (stereo partly drawn) [Example 405, 3-[[7-[5-chloro-2-[[(4R)-4-fluoro-4-methyl-3-piperidyl]oxy]-3-methyl-phenyl]thieno[3,2-b]pyridin-2-yl]methyl]-1-(2,2,2-trifluoroethyl)pyrimidine-2,4-dione; 2,2,2-trifluoroacetic acid]
< 1000		Cc1cc(Cl)cc(-c2ccnc3cc(Cn4c(=O)ccn(CC(F)(F)F)c4=O)sc23)c1OC1CNCC1(C)C (stereo not shown) [Example 346, 3-[[7-[5-chloro-2-(4,4-dimethylpyrrolidin-3-yl)oxy-3-methyl-phenyl]thieno[3,2-b]pyridin-2-yl]methyl]-1-(2,2,2-trifluoroethyl)pyrimidine-2,4-dione]
	< 1000	COC[C@@H]1C[C@H](Oc2c(C)cc(Cl)cc2-c2ccnc3cc(Cn4c(=O)ccn(CC(F)(F)F)c4=O)sc23)CN1 [Example 647, 3-[[7-[5-chloro-2-[(3S,5S)-5-(methoxymethyl)pyrrolidin-3-yl]oxy-3-methyl-phenyl]thieno[3,2-b]pyridin-2-yl]methyl]-1-(2,2,2-trifluoroethyl)pyrimidine-2,4-dione]
	< 1000	Cc1cc(Cl)cc(-c2ccnc3cc(Cn4c(=O)ccn(CC(F)(F)F)c4=O)sc23)c1OC1(C)CCNC1 (stereo not shown) [Example 663, 3-[[7-[5-chloro-3-methyl-2-(3-methylpyrrolidin-3-yl)oxy-phenyl]thieno[3,2-b]pyridin-2-yl]methyl]-1-(2,2,2-trifluoroethyl)pyrimidine-2,4-dione]
< 1000		Cc1cc(Cl)cc(-c2ccnc3cc(CN4C(=O)COC4=O)sc23)c1O[C@H]1CCCNC1 [Example 330, 3-[[7-[5-chloro-3-methyl-2-[[(3S)-3-piperidyl]oxy]phenyl]thieno[3,2-b]pyridin-2-yl]methyl]oxazolidine-2,4-dione; 2,2,2-trifluoroacetic acid]
10000 to 30000		Cc1cc(Cl)cc(-c2ccnc3cc(CO)sc23)c1OC[C@@H]1CNCCN1 [Example 168, (S)-(7-(5-Chloro-3-methyl-2-(piperazin-2-ylmethoxy)phenyl)thieno[3,2-b]pyridin-2-yl)methanol]
1000 to 10000		CCC(O)c1cc2nccc(-c3cc(Cl)cc(C)c3OC3CCN(C)CC3)c2s1 (stereo not shown) [Example 188, 1-(7-(5-Chloro-3-methyl-2-((1-methylpiperidin-4-yl)oxy)phenyl)thieno[3,2-b]pyridin-2-yl)propan-1-ol]
< 1000		Cc1cc(Cl)cc(-c2ncnc3cc(CN4C(=O)C5C(C4=O)C5(C)C)sc23)c1O[C@H]1CCCN[C@@H]1C (stereo partly drawn) [Example 360, 3-[[4-[5-chloro-3-methyl-2-[[(2R,3S)-2-methyl-3-piperidyl]oxy]phenyl]thieno[3,2-d]pyrimidin-6-yl]methyl]-6,6-dimethyl-3-azabicyclo[3.1.0]hexane-2,4-dione]
